Measured values: publication doi:10.1101/2020.06.11.145995v1 (biorxiv, 2020)

What was measured:
Test in all cases: biochemical
EGFR(L858R,T790M) = EGFR(L858R,T790M) (Homo sapiens, UniProt P00533, L858R/T790M); conditions: read-out: CPT-1-70-1 (1uM) % control
PIM3 = PIM3 (Homo sapiens, UniProt Q86V86); conditions: read-out: CPT-1-70-1 (1μM) % control
PKMYT1 = PKMYT1 (Homo sapiens, UniProt Q99640); conditions: read-out: CPT-1-70-1 (1μM) % control
PIP5K1C = PIP5K1C (Homo sapiens, UniProt O60331); conditions: read-out: CPT-1-70-1 (1μM) % control
PIP5K2B = PIP5K2B (Homo sapiens, UniProt P78356); conditions: read-out: CPT-1-70-1 (1μM) % control
PKAC-beta = PKAC-beta (Homo sapiens, UniProt P22694); conditions: read-out: CPT-1-70-1 (1μM) % control
PIK3CB = PIK3CB (Homo sapiens, UniProt P42338); conditions: read-out: CPT-1-70-1 (1μM) % control
PIK4CB = PIK4CB (Homo sapiens, UniProt Q9UBF8); conditions: read-out: CPT-1-70-1 (1μM) % control
NEK10 = NEK10 (Homo sapiens, UniProt Q6ZWH5); conditions: read-out: CPT-1-70-1 (1μM) % control
PIP5K1A = PIP5K1A (Homo sapiens, UniProt Q99755); conditions: read-out: CPT-1-70-1 (1μM) % control
PIM2 = PIM2 (Homo sapiens, UniProt Q9P1W9); conditions: read-out: CPT-1-70-1 (1μM) % control
PIK3CG = PIK3CG (Homo sapiens, UniProt P48736); conditions: read-out: CPT-1-70-1 (1μM) % control
PIM1 = PIM1 (Homo sapiens, UniProt P11309); conditions: read-out: CPT-1-70-1 (1μM) % control
PIK3CA(Q546K) = PIK3CA(Q546K) (Homo sapiens, UniProt P42336, Q546K); conditions: read-out: CPT-1-70-1 (1μM) % control
PKN1 = PKN1 (Homo sapiens, UniProt Q16512); conditions: read-out: CPT-1-70-1 (1μM) % control
WNK3 = WNK3 (Homo sapiens, UniProt Q9BYP7); conditions: read-out: CPT-1-70-1 (1μM) % control
PKAC-alpha = PKAC-alpha (Homo sapiens, UniProt P17612); conditions: read-out: CPT-1-70-1 (1μM) % control
SGK = SGK (Homo sapiens, UniProt O00141); conditions: read-out: CPT-1-70-1 (1μM) % control
WNK1 = WNK1 (Homo sapiens, UniProt Q9H4A3); conditions: read-out: CPT-1-70-1 (1μM) % control
PIP5K2C = PIP5K2C (Homo sapiens, UniProt Q8TBX8); conditions: read-out: CPT-1-70-1 (1μM) % control
SGK2 = SGK2 (Homo sapiens, UniProt Q9HBY8); conditions: read-out: CPT-1-70-1 (1μM) % control
CSF1R-autoinhibited = CSF1R-autoinhibited (Homo sapiens, UniProt P07333); conditions: read-out: CPT-1-70-1 (1uM) % control
ERK1 = ERK1 (Homo sapiens, UniProt P27361); conditions: read-out: CPT-1-70-1 (1uM) % control
ALK(L1196M) = ALK(L1196M) (Homo sapiens, UniProt Q9UM73, L1196M); conditions: read-out: CPT-1-70-1 (1uM) % control
ERK4 = ERK4 (Homo sapiens, UniProt P31152); conditions: read-out: CPT-1-70-1 (1uM) % control
BUB1 = BUB1 (Homo sapiens, UniProt O43683); conditions: read-out: CPT-1-70-1 (1uM) % control
EPHB2 = EPHB2 (Homo sapiens, UniProt P29323); conditions: read-out: CPT-1-70-1 (1uM) % control
EPHA6 = EPHA6 (Homo sapiens, UniProt Q9UF33); conditions: read-out: CPT-1-70-1 (1uM) % control
ERBB2 = ERBB2 (Homo sapiens, UniProt P04626); conditions: read-out: CPT-1-70-1 (1uM) % control
Sequence of ERBB2 (P04626 whole entry): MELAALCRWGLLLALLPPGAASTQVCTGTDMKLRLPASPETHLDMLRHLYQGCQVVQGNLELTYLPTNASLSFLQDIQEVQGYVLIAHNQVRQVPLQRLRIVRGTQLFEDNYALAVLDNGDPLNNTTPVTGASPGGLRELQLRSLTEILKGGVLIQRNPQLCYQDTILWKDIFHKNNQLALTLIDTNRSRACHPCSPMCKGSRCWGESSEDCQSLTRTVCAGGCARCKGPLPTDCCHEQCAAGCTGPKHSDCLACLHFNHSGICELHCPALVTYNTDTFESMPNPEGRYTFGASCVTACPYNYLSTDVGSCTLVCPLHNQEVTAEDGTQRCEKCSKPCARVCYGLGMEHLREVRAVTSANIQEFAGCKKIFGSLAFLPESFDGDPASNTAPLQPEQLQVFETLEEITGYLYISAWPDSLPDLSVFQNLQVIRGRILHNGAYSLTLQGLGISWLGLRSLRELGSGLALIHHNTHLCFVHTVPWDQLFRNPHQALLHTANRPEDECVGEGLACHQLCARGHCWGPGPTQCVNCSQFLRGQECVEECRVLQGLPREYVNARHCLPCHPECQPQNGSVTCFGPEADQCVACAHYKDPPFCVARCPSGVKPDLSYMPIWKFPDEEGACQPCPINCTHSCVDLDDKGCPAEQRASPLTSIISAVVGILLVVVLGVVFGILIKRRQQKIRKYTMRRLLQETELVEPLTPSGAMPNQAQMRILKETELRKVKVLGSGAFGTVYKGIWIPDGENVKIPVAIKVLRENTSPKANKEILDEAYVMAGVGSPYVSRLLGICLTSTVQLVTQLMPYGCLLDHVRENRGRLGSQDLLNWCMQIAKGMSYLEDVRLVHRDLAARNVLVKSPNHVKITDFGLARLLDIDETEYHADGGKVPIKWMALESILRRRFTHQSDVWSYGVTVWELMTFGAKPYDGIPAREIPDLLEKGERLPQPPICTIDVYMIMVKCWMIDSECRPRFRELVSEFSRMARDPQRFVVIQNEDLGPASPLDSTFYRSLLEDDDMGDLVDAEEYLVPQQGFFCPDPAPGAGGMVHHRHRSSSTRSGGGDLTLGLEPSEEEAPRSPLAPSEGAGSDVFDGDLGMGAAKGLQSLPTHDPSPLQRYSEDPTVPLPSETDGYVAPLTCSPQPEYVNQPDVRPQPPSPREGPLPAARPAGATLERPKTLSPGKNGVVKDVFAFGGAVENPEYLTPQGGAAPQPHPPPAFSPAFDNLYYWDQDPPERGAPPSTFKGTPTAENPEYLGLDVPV

Sequence of PIP5K2B (P78356 whole entry): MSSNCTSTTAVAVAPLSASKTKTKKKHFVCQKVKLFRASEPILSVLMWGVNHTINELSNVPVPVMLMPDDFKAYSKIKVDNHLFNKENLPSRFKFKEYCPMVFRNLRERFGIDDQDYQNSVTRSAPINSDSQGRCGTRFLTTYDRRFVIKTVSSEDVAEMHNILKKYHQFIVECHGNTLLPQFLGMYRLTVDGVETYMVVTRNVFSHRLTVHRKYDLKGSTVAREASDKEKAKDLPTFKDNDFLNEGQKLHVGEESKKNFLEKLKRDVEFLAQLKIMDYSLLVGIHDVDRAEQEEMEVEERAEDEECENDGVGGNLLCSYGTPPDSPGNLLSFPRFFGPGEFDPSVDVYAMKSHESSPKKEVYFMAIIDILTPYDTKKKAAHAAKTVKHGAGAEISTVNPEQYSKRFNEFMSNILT
Sequence of PIP5K2C (Q8TBX8 whole entry): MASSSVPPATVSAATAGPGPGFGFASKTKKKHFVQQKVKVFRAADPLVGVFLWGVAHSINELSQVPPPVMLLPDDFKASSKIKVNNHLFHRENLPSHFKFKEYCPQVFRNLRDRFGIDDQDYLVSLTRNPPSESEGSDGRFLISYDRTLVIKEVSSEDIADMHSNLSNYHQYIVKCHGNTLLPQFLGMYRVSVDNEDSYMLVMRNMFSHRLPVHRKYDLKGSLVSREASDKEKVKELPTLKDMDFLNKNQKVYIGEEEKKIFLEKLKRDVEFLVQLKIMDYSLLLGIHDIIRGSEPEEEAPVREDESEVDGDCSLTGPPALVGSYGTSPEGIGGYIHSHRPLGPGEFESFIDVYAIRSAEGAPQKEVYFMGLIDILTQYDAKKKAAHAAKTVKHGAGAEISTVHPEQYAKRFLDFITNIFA
Sequence of PKN1 (Q16512 whole entry): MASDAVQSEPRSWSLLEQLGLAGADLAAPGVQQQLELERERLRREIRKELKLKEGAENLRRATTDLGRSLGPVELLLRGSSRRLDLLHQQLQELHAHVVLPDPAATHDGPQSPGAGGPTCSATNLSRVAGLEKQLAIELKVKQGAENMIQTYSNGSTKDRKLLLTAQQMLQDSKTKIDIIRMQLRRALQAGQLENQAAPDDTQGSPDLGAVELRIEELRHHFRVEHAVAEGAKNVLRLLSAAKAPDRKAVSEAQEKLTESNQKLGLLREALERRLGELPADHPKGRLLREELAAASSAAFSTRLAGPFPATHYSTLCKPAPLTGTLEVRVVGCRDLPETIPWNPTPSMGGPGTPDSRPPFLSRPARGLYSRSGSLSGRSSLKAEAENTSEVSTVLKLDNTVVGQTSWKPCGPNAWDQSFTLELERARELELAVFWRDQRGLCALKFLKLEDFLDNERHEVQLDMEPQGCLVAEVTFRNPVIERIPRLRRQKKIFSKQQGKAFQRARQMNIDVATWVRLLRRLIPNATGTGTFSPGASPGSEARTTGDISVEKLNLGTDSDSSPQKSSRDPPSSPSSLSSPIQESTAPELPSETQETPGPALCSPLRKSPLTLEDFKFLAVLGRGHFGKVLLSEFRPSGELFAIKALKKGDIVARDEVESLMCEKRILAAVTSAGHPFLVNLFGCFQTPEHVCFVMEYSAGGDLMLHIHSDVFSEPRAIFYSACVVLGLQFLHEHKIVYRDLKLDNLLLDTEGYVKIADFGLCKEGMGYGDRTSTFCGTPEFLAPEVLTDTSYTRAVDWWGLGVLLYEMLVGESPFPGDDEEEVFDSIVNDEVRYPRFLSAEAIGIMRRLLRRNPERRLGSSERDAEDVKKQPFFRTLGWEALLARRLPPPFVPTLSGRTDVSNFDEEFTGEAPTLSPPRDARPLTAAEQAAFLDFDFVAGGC
Sequence of ERK4 (P31152 whole entry): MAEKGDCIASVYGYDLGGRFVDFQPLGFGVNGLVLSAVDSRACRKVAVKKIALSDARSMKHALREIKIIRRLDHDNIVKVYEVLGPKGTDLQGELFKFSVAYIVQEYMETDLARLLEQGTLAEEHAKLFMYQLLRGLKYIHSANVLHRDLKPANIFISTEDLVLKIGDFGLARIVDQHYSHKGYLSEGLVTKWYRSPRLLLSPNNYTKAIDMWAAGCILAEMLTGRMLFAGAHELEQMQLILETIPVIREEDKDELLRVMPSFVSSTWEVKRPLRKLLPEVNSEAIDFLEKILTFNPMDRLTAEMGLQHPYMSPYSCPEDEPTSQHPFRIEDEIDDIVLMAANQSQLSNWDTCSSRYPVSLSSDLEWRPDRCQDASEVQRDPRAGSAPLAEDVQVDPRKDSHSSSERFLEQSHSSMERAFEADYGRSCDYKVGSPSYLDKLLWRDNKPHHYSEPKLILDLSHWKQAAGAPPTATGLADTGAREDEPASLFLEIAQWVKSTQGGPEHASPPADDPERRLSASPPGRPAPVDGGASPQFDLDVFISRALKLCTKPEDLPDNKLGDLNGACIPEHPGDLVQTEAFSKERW
Sequence of SGK2 (Q9HBY8 whole entry): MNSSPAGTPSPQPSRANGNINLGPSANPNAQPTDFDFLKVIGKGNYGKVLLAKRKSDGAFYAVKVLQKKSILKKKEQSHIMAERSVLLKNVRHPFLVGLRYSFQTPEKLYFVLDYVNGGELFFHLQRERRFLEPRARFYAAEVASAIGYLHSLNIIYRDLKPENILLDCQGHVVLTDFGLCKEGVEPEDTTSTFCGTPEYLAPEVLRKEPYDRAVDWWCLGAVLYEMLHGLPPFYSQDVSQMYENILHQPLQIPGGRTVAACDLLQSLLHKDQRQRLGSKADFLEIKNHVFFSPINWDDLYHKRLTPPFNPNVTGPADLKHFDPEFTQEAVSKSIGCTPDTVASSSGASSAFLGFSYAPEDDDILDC
Sequence of ERK1 (P27361 whole entry): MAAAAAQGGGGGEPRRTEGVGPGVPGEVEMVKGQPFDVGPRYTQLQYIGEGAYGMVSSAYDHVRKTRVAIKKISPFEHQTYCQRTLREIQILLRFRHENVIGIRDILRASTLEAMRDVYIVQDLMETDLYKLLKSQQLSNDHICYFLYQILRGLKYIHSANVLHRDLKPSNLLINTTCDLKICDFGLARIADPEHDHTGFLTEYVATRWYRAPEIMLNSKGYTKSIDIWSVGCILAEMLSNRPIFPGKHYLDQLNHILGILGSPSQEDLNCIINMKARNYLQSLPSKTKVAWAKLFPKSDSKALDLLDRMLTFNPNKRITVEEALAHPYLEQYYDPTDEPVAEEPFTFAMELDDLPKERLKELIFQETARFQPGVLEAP
Sequence of PIM1 (P11309 whole entry): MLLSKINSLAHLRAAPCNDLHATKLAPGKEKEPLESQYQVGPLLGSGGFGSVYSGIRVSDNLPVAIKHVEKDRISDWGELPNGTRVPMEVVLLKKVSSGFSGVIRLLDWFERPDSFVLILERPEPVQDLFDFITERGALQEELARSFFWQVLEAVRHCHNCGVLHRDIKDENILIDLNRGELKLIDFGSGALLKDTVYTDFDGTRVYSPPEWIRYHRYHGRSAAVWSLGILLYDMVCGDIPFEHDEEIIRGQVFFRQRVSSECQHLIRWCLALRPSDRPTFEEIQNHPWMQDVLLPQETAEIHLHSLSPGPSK

`CN1CCN(c2ccc(Nc3nc(Oc4ccc(NC(=O)CCl)cc4)c4cc[nH]c4n3)cc2)CC1` [CPT1-70-1] showed a remaining activity at 1 µM (EGFR(L858R,T790M)) of 0.35%, a remaining activity at 1 µM (PIM3) of 81% and a remaining activity at 1 µM (PKMYT1) of 94%. For the same compound, the remaining activity at 1 µM (PIP5K1C) was 57%, the remaining activity at 1 µM (PIP5K2B) was 100% and the remaining activity at 1 µM (PKAC-beta) was 100%. It also gave a remaining activity at 1 µM (PIK3CB) of 100%, a remaining activity at 1 µM (PIK4CB) of 100% and a remaining activity at 1 µM (NEK10) of 14%. For the same compound, the remaining activity at 1 µM (PIP5K1A) was 13%, the remaining activity at 1 µM (PIM2) was 100% and the remaining activity at 1 µM (PIK3CG) was 100%. It also gave a remaining activity at 1 µM (PIM1) of 100%, a remaining activity at 1 µM (PIK3CA(Q546K)) of 100% and a remaining activity at 1 µM (PKN1) of 79%. It also gave a remaining activity at 1 µM (WNK3) of 100%, a remaining activity at 1 µM (PKAC-alpha) of 69% and a remaining activity at 1 µM (SGK) of 26%. It also gave a remaining activity at 1 µM (WNK1) of 100%, a remaining activity at 1 µM (PIP5K2C) of 63% and a remaining activity at 1 µM (SGK2) of 100%. The remaining activity at 1 µM (CSF1R-autoinhibited) was 1.4%, the remaining activity at 1 µM (ERK1) was 100% and the remaining activity at 1 µM (ALK(L1196M)) was 100%. The remaining activity at 1 µM (ERK4) was 96%, the remaining activity at 1 µM (BUB1) was 85% and the remaining activity at 1 µM (EPHB2) was 100%. It also gave a remaining activity at 1 µM (EPHA6) of 100% and a remaining activity at 1 µM (ERBB2) of 57%.
